# Assay results published in patent US20100068208A1, “Degranulation inhibitor” (priority 2005, published 2010).
# Key:
# Format in all cases: cell-based
# [1] = tested on: RBL-2H3; experiment: Intracellular calcium increasing activity in RBL2H3 (FLIPR); design: unit not given here
# Experimental: (§1) RBL-2H3 (hereinafter RBL2H3) was incubated in α-MEM (Invitrogen) supplemented with 10% fetal calf serum. Vector plasmid pcDNA3.1 for animal cell expression, in which the nucleotide sequence containing the initiation codon to the termination codon of human TGR12 (DNA having the nucleotide sequence represented by SEQ ID NO: 32) was incorporated, was stably expressed in RBL-2H3 to establish human TGR12-expressed RBL-2H3 cell line (hereinafter RBL2H3-TGR12). RBL2H3-TGR12 was incubated in α-MEM (Invitrogen) supplemented with 10% fetal calf serum and 200 μg/mL of Geneticin.
# The intracellular calcium increasing activity was assayed as follows. RBL2H3 and RBL2H3-TGR12 were plated in a 96-well plate at a density of 40,000 cells/well and incubated overnight. The medium was then discarded and 100 μL/well of 4 μM Fluo3-AM (Dojin Kagaku)-containing assay buffer [Hank's Balanced Salt Solution (Invitrogen), 20 mM HEPES (Dojin Kagaku) and 2.5 mM Probenecid (Sigma)] was added. The mixture was allowed to stand for an hour at 37° C. Various TGR12 (Peptide Institute, Inc.) or calcium ionophore A23187 (Wako Pure Chemical) was diluted in 0.05% CHAPS-containing assay buffer. After the cells were washed with the assay buffer, fluorescence emitted with changes in intracellular calcium was measured using FLIPR (Molecular Device). A sample, 50 μL, was added at a rate of 50 μL/sec. 10 seconds after initiation of the assay. Fluorescence was measured every 1 second during the first 60 seconds and every 6 seconds during the next 120 seconds. The highest fluorescence intensity during 3 minutes was made the maximum activity under the stimulation conditions, which was taken as an average of 3 wells. The EC50 values were calculated using Graphpad PRISM 4 (Graphpad Software).
# [2] = tested on: human mast cell line LAD 2; experiment: Expression of TNF-α, CCL-2 or CCL-5 mRNA in LAD 2 (TaqMan PCR); settings: 1 μM
# Experimental: Human mast cell line LAD 2 was cultured in StemPro-34 medium (Invitrogen) supplemented with 100 ng/mL of stem cell factor (Immuno-Biological Laboratories Co., Ltd.). […] A 750 μL aliquot was inoculated on a 24-well plate, which was then allowed to stand in a CO2 incubator at 37° C. for 30 minutes. […] The assay was performed for the respective reaction conditions in n=3. The plate was ice-chilled 0.5, 2, 8 and 24 hours after to stop the activation of LAD 2. After centrifugation at 300×g for 5 minutes, total RNA was extracted from the precipitated cells using RNeasy Mini Kit (Qiagen) according to the protocol attached. Further in the experiments where expression levels upon stimulation by various TGR12 ligands were analyzed, LAD 2 was centrifuged at 300×g for 5 minutes and the cells precipitated were counted and suspended in the medium at 1.33×10^6 cells/mL. A 750 μL aliquot was inoculated on a 24-well plate, which was allowed to stand in a CO2 incubator at 37° C. for 30 minutes. […] The assay was performed for the respective reaction conditions in n=3. Two hours after, the plate was ice-chilled to stop the activation of LAD 2. After centrifugation at 300×g for 5 minutes, total RNA was extracted from the precipitated cells using RNeasy Mini Kit (Qiagen) according to the protocol attached. The total RNA obtained as described above was concentrated using ethachinmate according to the protocol attached and dissolved in RNase-free H2O, Next, using the solution corresponding to […] of total RNA, reverse transcription was performed by the following procedure using SuperScript II reverse transcriptase (Invitrogen) to synthesize single stranded cDNA. To the total RNA solution, 0.1 μg of random primer (Invitrogen) and 1 μL of 10 mM dNTP (Invitrogen) were added and then RNase-free H2O was added to make the whole volume 12 μL. The mixture was then incubated at 70° C. for 10 minutes and ice-cooled for a minute. After 4 μL of 5× First-Strand Buffer (attached to SuperScript II reverse transcriptase), 2 μL of 0.1M DTT (attached to SuperScript II reverse transcriptase), 1 μL of RNaseOUT (Invitrogen) and 1 μL of SuperScript II reverse transcriptase were added, the mixture was incubated at 42° C. for 50 minutes, then at 70° C. for 15 minutes and ice-cooled for 5 minutes. The thus obtained cDNA was purified using ethachinmate in accordance with the protocol attached and dissolved in Tris-EDTA buffer (Fluka).
# In TaqMan PCR below, hTNFalpha-tF (SEQ ID NO: 33) and hTNFalpha-tR (SEQ ID NO: 34) were used as primers for human TNF-α quantification, hTNFalpha-tP (SEQ ID NO: 35) as a probe and hTNFalpha-standard (SEQ ID NO: 36) as a standard. For human CCL-5 quantification, hCCL5-tF (SEQ ID NO: 37) and hCCL5-tR (SEQ ID NO: 38) were used as primers, hCCL5-tP (SEQ ID NO: 39) as a probe and hCCL5 standard (SEQ ID NO: 40) as a standard. For human CCL-2 quantification, hCCL2-tF (SEQ ID NO: 41) and hCCL2-tR (SEQ ID NO: 42) were used as primers, hCCL2-tP (SEQ ID NO: 43) as a probe and hCCL2 standard (SEQ ID NO: 44) as a standard.
# TaqMan PCR was performed in n=2 for each sample in a liquid volume of 15 μl using 12.5 ng of total RNA as a template. The reaction solution was composed of 900 nM primer, 250 nM probe and ½ volume of TaqMan Universal PCR Master Mix (Applied Biosystems). The reaction and analysis were performed by ABI PRISM 7900HT Sequence Detection System (Applied Biosystems). After keeping warm at 50° C. for 2 minutes and then at 95° C. for 10 minutes, the reaction cycle was set in one cycle to include 95° C. for 15 seconds and 60° C. for 1 minute and repeating the cycle 40 times.
# [3] = tested on: RBL-2H3; experiment: Degranulation promoting effect in RBL2H3 (β-hexosaminidase release)
# Experimental: as §1
# The degranulation promoting effect was determined as follows. RBL2H3 and RBL2H3-TGR12 were plated into a 96-well plate at a density of 40,000 cells/well and incubated overnight. Afterward the medium was discarded. […] The β-hexosaminidase activity in the supernatant for the degranulation assay was measured as follows to determine the degree of degranulation. The supernatant was dispensed into a 96-well plate and a 5-fold volume of 0.1M citrate (pH 4.5)/1 mM 4-methyl umbelliferyl-2-acetamido-2-deoxy-beta-D-glucopyranoside (Wako Pure Chemical) based on the volume of the supernatant was added thereto, followed by incubation at 37° C. for an hour. Subsequently, a 0.1-fold volume of 0.2 M glycine/NaCO3 (pH 10.7) based on the volume of the reaction solution was added to stop the reaction and the fluorescence was measured using Fusion-α (Perkin Elmer). For the β-hexosaminidase activity, the activity in the supernatant, which was obtained by likewise plating RBL2H3 and RBL2H3-TGR12GFP onto the plate, detaching the same with trypsin/EDTA, freeze-thawing 4 times and then centrifugation, was made the total β-hexosaminidase activity in LAD 2. The degree of degranulation was shown by a ratio of the β-hexosaminidase activity in the LAD 2 supernatant to the total β-hexosaminidase activity.
# [4] = time course, 0.5 hours after the stimulation
# [5] = time course, 2 hours after the stimulation
# [6] = time course, 8 hours after the stimulation
# [7] = time course, 24 hours after the stimulation
# [8] = various TGR12 ligands experiment, two hours after stimulation
smiles,measurement,setting,value
CSCC[C@H](NC(=O)[C@H](CC(C)C)NC(=O)CNC(=O)[C@H](Cc1ccccc1)NC(=O)[C@H](Cc1ccccc1)NC(=O)[C@H](CCC(N)=O)NC(=O)[C@H](CCC(N)=O)NC(=O)[C@@H]1CCCN1C(=O)[C@H](CCCCN)NC(=O)[C@@H]1CCCN1C(=O)[C@@H](N)CCCNC(=N)N)C(N)=O [substance P],maximum activity in the calcium increasing effect,"[1]; RBL2H3, 1 nM",44
same,maximum activity in the calcium increasing effect,"[1]; RBL2H3, 10 nM",51
same,maximum activity in the calcium increasing effect,"[1]; RBL2H3, 100 nM",50
same,maximum activity in the calcium increasing effect,"[1]; RBL2H3, 1 μM",95
same,maximum activity in the calcium increasing effect,"[1]; RBL2H3, 10 μM",41
same,expression level of CCL-5 in LAD 2,[2]; [4],38107 copies
same,expression level of TNF-α in LAD 2,[2]; [4],56065 copies
same,expression level of CCL-5 in LAD 2,[2]; [5],88872 copies
same,expression level of TNF-α in LAD 2,[2]; [5],1346293 copies
same,expression level of CCL-5 in LAD 2,[2]; [6],69921 copies
same,expression level of TNF-α in LAD 2,[2]; [6],54313 copies
same,expression level of CCL-5 in LAD 2,[2]; [7],53605 copies
same,expression level of TNF-α in LAD 2,[2]; [7],4332 copies
same,expression level of CCL-2 in LAD 2,[2]; [8],2694837 copies
same,expression level of CCL-5 in LAD 2,[2]; [8],47117 copies
same,expression level of TNF-α in LAD 2,[2]; [8],173462 copies
same,degranulation (β-hexosaminidase in supernatant to total),"[3]; RBL2H3, 10 nM",8.8%
same,degranulation (β-hexosaminidase in supernatant to total),"[3]; RBL2H3, 30 nM",8.9%
same,degranulation (β-hexosaminidase in supernatant to total),"[3]; RBL2H3, 100 nM",8.9%
same,degranulation (β-hexosaminidase in supernatant to total),"[3]; RBL2H3, 300 nM",8.5%
same,degranulation (β-hexosaminidase in supernatant to total),"[3]; RBL2H3, 1 μM",8.4%
same,degranulation (β-hexosaminidase in supernatant to total),"[3]; RBL2H3, 3 μM",7.9%
